Patent US20050239873A1 (priority 1999, published 2005)

Legend:
plasma proteins = assay: Binding to plasma proteins (ultrafiltration); format: in vitro ADME, dog; conditions: presence of NaF+EDTA, 1000 ng/ml
Description: Solutions of 2-OMe antimycin A3 were diluted with plasma (dog or human) containing NaF+EDTA to final concentrations of 1.0 or 0.2 μg/ml. Controls were diluted with water to the same final concentrations. These preparations were incubated at 37° C. for 20 min, at which time portions were taken and placed in the sample reservoirs of Amicon Centrifree® ultrafiltration systems (Millipore Co., Bedford, Mass.). At 37° C., the filter systems were centrifuged until the reservoirs were dry. From each filtrate, portions were taken for analysis by HPLC. The amounts present were designated as “free drug” (F). The concentrations of the unfiltered solutions were also determined by triplicate analyses. This amount represented the “total drug” concentration (T). The percentage of 2-OMe antimycin A3 bound to plasma proteins was calculated by the following formula: % bound=((T−F)/T)×100
Similar experiments were performed for 2-OMe antimycin A3 in dog or rat plasma in the absence of NaF/EDTA.

RPMI-8226 cells = assay: GI50 assay (MTT); format: cell-based, human; conditions: 48 h, MTT
Description: (§1) RPMI 8226 cells were grown in 96 well plates for 24 h prior to addition of 2-methoxy Antimycins. Antimycin stocks in DMSO were serially diluted in RPMI media. Cells were incubated for 48 h with compounds at final compound concentrations ranging from 10^−4 to 10^−8 M. MTT assays were performed in quadruplicate and percent growth inhibitions were calculated as (A570 (control cells)—A570 (treated cells))/A570 (control cells). The GI50 was extrapolated from semi-log plots of the dose response for each compound. […] After 72 h drug exposures, 1 μCi/ml [^3H]-thymidine was added to wells. Cells were incubated for an additional 24 h, and then transferred to GF/C filter plates (Packard) using a plate washer. Filters were dried, added to scintillant, and counted in a TopCount scintillation counter (Packard). Drug response was expressed as the percentage of vehicle-treated controls, and each value shown as the average of three determinations.

[1] = test system: RPMI-8226 human myeloma xenografts in NOD/SCID mice; assay: RPMI-8226 tumor xenografts; format: in vivo, mouse
Description: Six to nine-week old Nod/Les2 Scid/J mice were inoculated with 3×10^7 RPMI-8226 cells by interscapular subcutaneous injection. Mice were maintained under specific pathogen-free conditions. Palpable tumor nodules were measured in two dimensions with calipers and tumor volumes calculated in mm^3 as (length×width^2)/2. Blood samples were collected by retro-orbital bleed for human light chain measurements by ELISA with lambda-specific antibody and horseradish peroxidase detection (BD Biosciences). Animals were sacrificed by halothane inhalation, and histologic examination of tumors and internal organs was performed. All experiments were approved by the Fred Hutchison Cancer Research Center Institutional Animal Care and Use Committee.
2-OMe antimycin A1 was synthesized from antimycin A1 (Sigma) (comprising about 80% antimycin Ala and about 20% A1b) and dissolved in phosphate-buffered saline with 20% Cremaphor, 25% ethanol (3 mg/ml) for parenteral administration by tail vein injection in a total volume of 100 μl. Control mice received injections of Cremaphor/ethanol vehicle.
Tissues were fixed in 10% buffered formalin, embedded in paraffin, sectioned and stained with hematoxylin and eosin. TUNEL staining was performed using 0.3 units/ml terminal deoxynucleotidyl transferase and biotinylated dATP with development by avidin-biotin peroxidase method. BCl-xL immunohistochemistry was performed using anti-Bcl-xL antibody (BD Biosciences) followed by biotinylated secondary antibody and peroxidase-labeled ABC reagent (Vector, Burlingame Calif.).
To determine whether 2-OMeA, has anti-tumor activity in vivo, a total of 12 NOD/SCID mice in three experiments were inoculated with 3×10^7 RPMI-8226 human myeloma cells by interscapular subcutaneous injection. […] In total, six mice received three intravenous doses of 10 mg/kg 2-OMeA1 on alternate days starting on day 6. Six control mice received injections of Cremaphor/ethanol vehicle without drug.

[2] = test system: mitochondria from TABX2S cells (high levels of Bcl-xL); assay: JC-1 membrane potential of isolated mitochondria; parameters: species or system murine
Description: Isolated mitochondria were loaded with JC-1 prior to treatment, and mitochondrial labeling was determined using FACS. […] Antimycin A-treated mitochondria with high levels of Bcl-xL had lower levels of JC-1 staining than parallel samples treated with CCCP. Uncoupled mitochondria still retain a significant Donnan potential because of trapped anionic species and it is likely that antimycin-induced PT and/or swelling of mitochondria led to a further reduction of this residual potential.
As observed for the parent compound, antimycin A3, mitochondria with normal levels of BCl-xL expression were not affected by the 2-methoxy analog.

NCI-H929 myeloma cells = assay: [3H]-thymidine incorporation assay; format: cell-based, human; conditions: 72 h drug exposure
Description: as §1

RPMI-8226 myeloma cells = assay: [3H]-thymidine incorporation assay; format: cell-based, human
Description: as §1

U266 myeloma cells = assay: [3H]-thymidine incorporation assay; format: cell-based, human; conditions: 72 h drug exposure
Description: as §1

[3] = test system: TAMH hepatocyte cell line; assay: O2 consumption with a Clark electrode; format: cell-based, murine
Description: Respiratory rates of both cell lines were maintained through repeated additions of 10 μM 2-OMeA, to a final concentration of 90 μM. […] Real-time glucose consumption and lactate production by TAMH cells grown on microcarrier beads was monitored using a novel microsequential injection-lab on valve (μSI-LOV) system (Schulz et al., Analyst 127:1293-1298, 2002). […] Since 2-OMeA has no effect on cellular respiration at these concentrations, 2-OMeA induced aerobic glycolysis in TAMH cells. The glycolytic response to 2-OMeA was proportional to cellular BCl-xL protein expression.

cytochrome bc1 = cytochrome bc1 (Bos taurus, UniProt P00157); conditions: cited from earlier work

Compound: CCCCCC[C@H]1C(=O)O[C@H](C)[C@H](NC(=O)c2cccc(NC=O)c2OC)C(=O)O[C@@H](C)[C@@H]1OC(=O)CC(C)C [2-OMeA1, 2-methoxy antimycin A1]
- Protein binding, Dog (plasma proteins): 99.8%
- GI50 (RPMI-8226 cells): 8.56 µM
- time to regression of early and large nodules ([1]; 10 mg/kg intravenously): within the first week
- tumor sections ([1]; 24 and 48 h after a single 10 mg/kg intravenous treatment): widespread apoptosis
- average reduction of serum levels of human light chain ([1]; after the third injection, 10 mg/kg intravenous on alternate days): 87%
- mice with tumor regression during treatment ([1]; three intravenous doses of 10 mg/kg on alternate days starting on day 6): Five of six
- effect of delayed treatment on tumor nodules ([1]; two tumor-bearing control mice, 10 mg/kg on days 43, 46 and 48): regression of tumor nodules

Compound: antimycin A
- decrease in ΔΨm (JC-1) ([2]; vs control mitochondria (TABX1A)): much greater decrease in ΔΨm
- 50% growth inhibition (GI50) (NCI-H929 myeloma cells): 0.2 µg/mL
- 50% growth inhibition (GI50) (RPMI-8226 myeloma cells; 72 h drug exposure): 0.1 µg/mL
- 50% growth inhibition (GI50) (U266 myeloma cells): 0.05 µg/mL
- dampening of respiration ([3]; 10 μM): > 90%

Compound: CCCC[C@H]1C(=O)OC(C)[C@H](NC(=O)c2cccc(NC=O)c2OC)C(=O)O[C@@H](C)C1OC(=O)CC(C)C (some centres unmarked) [2-OMeA3, Antimycin A3 methyl ether]
- mitochondrial depolarization (JC-1) ([2]; 2 μg/ml): strongly depolarized
- Protein binding, Dog (plasma proteins): 99.3%
- GI50 (RPMI-8226 cells; Homo sapiens, RPMI-8226): 10.2 µM
- activity as an inhibitor of cytochrome bc1 (cytochrome bc1): inactive

Compound: 2-methoxy antimycin A [2-OMeA]
- IC50 (NCI-H929 myeloma cells): 10 µg/mL
- IC50 (RPMI-8226 myeloma cells; 72 h drug exposure): 15 µg/mL
- IC50 relative to antimycin A (RPMI-8226 myeloma cells; RPMI-8226, U266 and NCI-H929): 100 fold
- IC50 (U266 myeloma cells): 5 µg/mL
- respiratory rate ([3]; repeated additions of 10 μM to a final concentration of 90 μM): maintained
- treated mice with regression of tumor nodules ([1]; second round, 10 mg/kg alternate days, days 26 through 31): 6/6
- reduction of oxidative phosphorylation inhibitory activity at complex III (cytochrome bc1; relative to antimycin A): 1000 fold
